Measured values from ChEMBL document CHEMBL4020815 (J Med Chem, 2017).

Assays:
[1] = Permeability across apical to basolateral side in MDCK cells at 20 uM; assay type: ADME, cell-based, Canis lupus familiaris; conditions: dog
[2] = Plasma concentration in CD-1 mouse at 10 mg/kg, po after 1 hr by LC-MS/MS method; assay type: ADME, organism-based
[3] = Fraction unbound in CD-1 mouse plasma; assay type: ADME, cell-free
[4] = tested on: NCI-H460; experiment: Cytotoxicity against human NCI-H460 cells assessed as growth inhibition using low folate media after 7 days by Alamar blue assay; assay type: functional; conditions: NCI-H460, 168 h
[5] = tested on: NCI-H460; experiment: Cytotoxicity against human NCI-H460 cells assessed as growth inhibition using regular folate media after 7 days by Alamar blue assay; assay type: functional; conditions: NCI-H460, 168 h
[6] = tested on: Mus musculus; experiment: Unbound clearance in CD-1 mouse at 1 mg/kg, iv by LC-MS/MS method; assay type: ADME, organism-based; conditions: in vivo
[7] = tested on: Mus musculus; experiment: Unbound volume of distribution at steady state in CD-1 mouse at 1 mg/kg, iv by LC-MS/MS method; assay type: ADME, organism-based; conditions: in vivo
[8] = tested on: Mus musculus; experiment: Unbound AUC in CD-1 mouse at 10 mg/kg, po by LC-MS/MS method; assay type: ADME, organism-based; conditions: in vivo
[9] = tested on: Mus musculus; experiment: In vivo inhibition of AICARFT in tumor of low folate diet fed nude mouse xenografted with human NCI-H460 cells assessed as increase in intratumoral ZMP levels at 0.3 to 30 mg/kg after 4 hrs relative to vehicle-treated control; assay type: functional
[10] = molecular target: T1, Serine hydroxymethyltransferase, cytosolic (Homo sapiens, UniProt P34896); experiment: Inhibition of SHMT1 (unknown origin) using serine/THF as substrate after 50 mins by HPLC method
T1 sequence (P34896 whole entry): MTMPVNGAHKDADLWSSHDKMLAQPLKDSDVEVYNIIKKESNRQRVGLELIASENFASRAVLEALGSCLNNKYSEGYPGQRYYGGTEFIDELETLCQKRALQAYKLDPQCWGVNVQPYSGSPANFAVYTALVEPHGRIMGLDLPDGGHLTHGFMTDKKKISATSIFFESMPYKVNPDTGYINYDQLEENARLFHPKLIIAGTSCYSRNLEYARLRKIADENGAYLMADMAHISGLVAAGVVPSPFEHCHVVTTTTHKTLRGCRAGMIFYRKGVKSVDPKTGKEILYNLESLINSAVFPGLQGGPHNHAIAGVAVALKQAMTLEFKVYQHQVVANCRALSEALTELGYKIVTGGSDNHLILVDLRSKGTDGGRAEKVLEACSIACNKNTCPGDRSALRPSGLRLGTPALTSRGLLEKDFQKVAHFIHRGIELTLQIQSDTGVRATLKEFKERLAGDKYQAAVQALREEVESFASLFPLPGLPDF

[11] = molecular target: T2, C-1-tetrahydrofolate synthase, cytoplasmic (Homo sapiens, UniProt P11586); experiment: Inhibition of MTHFD1 (unknown origin) using NADP/5,10-methylene THF as substrate after 30 mins by HPLC method
T2 sequence (P11586 whole entry): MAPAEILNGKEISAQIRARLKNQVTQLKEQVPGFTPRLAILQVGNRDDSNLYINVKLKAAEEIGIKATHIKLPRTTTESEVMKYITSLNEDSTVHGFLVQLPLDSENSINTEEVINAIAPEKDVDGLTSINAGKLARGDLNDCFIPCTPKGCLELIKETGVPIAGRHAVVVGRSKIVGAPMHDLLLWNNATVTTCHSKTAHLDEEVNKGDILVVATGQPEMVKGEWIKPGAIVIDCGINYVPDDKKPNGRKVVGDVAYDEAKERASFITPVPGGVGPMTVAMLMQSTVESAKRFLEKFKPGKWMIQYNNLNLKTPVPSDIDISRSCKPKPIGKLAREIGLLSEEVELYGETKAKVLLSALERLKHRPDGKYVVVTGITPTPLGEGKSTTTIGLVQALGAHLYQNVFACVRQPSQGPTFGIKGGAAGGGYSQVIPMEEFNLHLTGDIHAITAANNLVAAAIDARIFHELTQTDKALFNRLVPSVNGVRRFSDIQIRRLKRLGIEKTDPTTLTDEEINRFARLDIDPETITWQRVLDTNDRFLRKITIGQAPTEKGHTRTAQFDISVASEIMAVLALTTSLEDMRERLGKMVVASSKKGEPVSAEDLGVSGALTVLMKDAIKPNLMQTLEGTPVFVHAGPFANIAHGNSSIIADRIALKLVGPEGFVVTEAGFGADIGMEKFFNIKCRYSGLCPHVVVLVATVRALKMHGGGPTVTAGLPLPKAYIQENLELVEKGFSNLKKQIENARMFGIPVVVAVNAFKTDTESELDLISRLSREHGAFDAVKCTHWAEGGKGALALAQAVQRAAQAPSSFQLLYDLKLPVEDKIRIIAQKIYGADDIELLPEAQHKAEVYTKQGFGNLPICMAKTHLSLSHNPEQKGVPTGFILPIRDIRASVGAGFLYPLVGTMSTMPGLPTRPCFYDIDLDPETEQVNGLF

[12] = Antitumor activity against human MDA-MB-231met2 cells xenografted in athymic nude mouse assessed as tumor volume at 60 mg/kg, bid administered via oral gavage for 22 days relative to control; assay type: functional
[13] = tested on: Mus musculus; experiment: Toxicity in athymic nude mouse xenografted with human MDA-MB-231met2 cells assessed as mortality at 30 to 60 mg/kg, bid administered via oral gavage for 22 days; assay type: organism-based; conditions: in vivo, 528 h
[14] = tested on: Mus musculus; experiment: Toxicity in athymic nude mouse xenografted with human MDA-MB-231met2 cells assessed as body weight loss at 30 to 60 mg/kg, bid administered via oral gavage for 22 days; assay type: organism-based; conditions: in vivo, 528 h
[15] = tested on: Mus musculus; experiment: In vivo inhibition of AICARFT in tumor of athymic nude mouse xenografted with human MDA-MB-231met2 cells assessed as increase in AICAr levels at 30 mg/kg, bid administered via oral gavage for 22 days relative to control; assay type: functional
[16] = tested on: Mus musculus; experiment: In vivo inhibition of AICARFT in tumor of athymic nude mouse xenografted with human MDA-MB-231met2 cells assessed as increase in AICAr levels at 60 mg/kg, bid administered via oral gavage for 22 days relative to control; assay type: functional
[17] = tested on: Mus musculus; experiment: In vivo inhibition of AICARFT in tumor of athymic nude mouse xenografted with human MDA-MB-231met2 cells assessed as increase in ZMP levels at 60 mg/kg, bid administered via oral gavage for 22 days relative to control; assay type: functional
[18] = tested on: MDA-MB-231met2; experiment: Antitumor activity against human MDA-MB-231met2 cells xenografted in athymic nude mouse assessed as tumor growth inhibition administered as bid via oral gavage for 22 days; assay type: functional, cell-based

O=c1[nH]ccc2cc(F)c(NS(=O)(=O)c3ccc(N4CC[C@@H](O)C4)s3)cc12
permeability [1]: 0.2%
concentration at 1 h [2]: 8.5 µM
fraction unbound [3]: 0.06
GI50 [4]: 0.025 µM
GI50 [5]: 6.58 µM
CL free [6]: 78 mL/min/kg
Vduss [7]: 12 L/kg
fAUC [8]: 1.279 µM·h
fold change (FC) [9]: >100
IC50 [10]: > 100 µM
IC50 [11]: > 100 µM
Activity [12]: -1%
Activity [13]: Non-Toxic
Activity [14]: Non-Toxic
fold change (FC) [15]: 30
fold change (FC) [16]: 3
fold change (FC) [17]: 16
TGI [18]: Dose-dependent effect
